The values that follow come from PubChem BioAssay AID720671 (NMMLSC, 2013).

The target of this assay is Botulinum neurotoxin type F light chain protease (Clostridium botulinum). Nature of the assay: inhibition of botulinum toxin F protease cleavage – biochemical, multiplex microsphere, Powder Set 03, dose response (AID 720671). Particulars: multiplex microsphere protease cleavage assay, BoNT/F LC.

Activity calls are given as the source filed them. How the calls were made is not given here.

On to `COc1ccc(-c2nc3nc(-c4ccc(F)cc4)cn3nc2-c2ccc(OC)cc2)cc1`, for which the EC50 – broadly, the concentration giving half of the maximal effect – was > 20 µM (inactive).
